Measurements published in patent US10335504B2, “Heterocyclic molecules for biomedical imaging and therapeutic applications” (Washington University, priority 2013, dated 2019).
“Also recorded” adds a separate entry of the source.

Columns and labels:
Hydrophobicity (log P) = type: physicochemical
Aβ plaques [1] = test: Staining of human AD brain tissue sections; type: binding; conditions: person with AD; 50 nM
Protocol: Staining experiments were performed with human brain tissues. Tissue samples were obtained from the frontal lobe of clinically and neuropathologically well-characterized cases. The neuropathological diagnosis of AD was based on the criteria of the Consortium to Establish a Registry for Alzheimer's Disease (CERAD) (Mirra, S., et al. The Consortium to Establish a Registry for Alzheimer's Disease (CERAD). Part II. Standardization of the neuropathologic assessment of Alzheimer's disease. Neurology 41, 479-486 (1991)) or the National Institute of Aging-Reagan Institute (NIA-RI) (Hyman, B. & Trojanowski, J. Consensus recommendations for the postmortem diagnosis of Alzheimer disease from the National Institute on Aging and the Reagan Institute Working Group on diagnostic criteria for the neuropathological assessment of Alzheimer disease. J Neuropathol Exp Neurol 56, 1095-1097. (1997)). […]
The fluorescent probe (F-AI-183) labels fibrillar amyloid (arrow). The slides were analyzed on a using a Nikon Ti-E PFS inverted microscope equipped with a Nikon 10×0.3 NA Plan APO objective, Prior H117 ProScan flat top linear encoded stage, and Prior Lumen 200PRO illumination system with standard DAPI and FITC filter sets. […] Images were processed and analyzed using the Image J software package (NIH).

preformed Aβ1-42 fibrils = target: T1, preformed Aβ1-42 fibrils (Homo sapiens, UniProt P05067); test: Binding assay with preformed Aβ1-42 fibrils/aggregates in PBS (fluorescence); conditions: PBS
T1 construct: preformed Aβ1-42 fibrils
Description: In some embodiments of the present teachings, binding assays to preformed fibrils or AD brain homogenate extracts can be performed using literature procedures (Klunk, W., et al. Uncharged thioflavin-T derivatives bind to amyloid-beta protein with high affinity and readily enter the brain. Life Sci 69, 1471-1484 (2001); Zhen, W., et al. Synthesis and amyloid binding properties of rhenium complexes: preliminary progress towards a reagent for SPECT imaging of Alzheimer's disease brain. J Med Chem 42, 2805-2815 (1999)). Prior to binding assays, the stock solution (2 μM) can be thawed. To aliquots of this stock solution, ^18F-AI-182 (also exemplified for either ^18F-AI-183 or ^18F-AI-187) can be added at various concentrations to a final concentration of 200 nM Aβ fibrils or 200 μL of AD brain extracts (20-25 μg). The aggregate-bound ^18F-AI-182 (or other analogues) can be collected on Whatman GF filters using Brandon M-24R cell harvester, washed, and counted in a γ-counter (Perkin Elmer). Inhibition constants (Ki) can be calculated as described previously (Han, H., Cho, C. & Lansbury, P. J. Technetium complexes for quantification of brain amyloid. J Am Chem Soc 118, 4506-4508 (1996)). Binding assay results can assist in evaluation of target specificity.
Binding assays of F-AI-182 with preformed Aβ1-42 aggregates were performed in PBS. […] Fluorescence was not observed using Aβ aggregates alone in PBS upon excitation at 410 nm (a negative control). […] Comparative analyses can be performed with other compounds such as AV-45, BAYER 94-9172, and AZD4694. An agent can be interacting with either of the two modestly high affinity binding sites (BS1& BS2) or recognizing an entirely new site on Aβ1-42. F-AI-182 can register different complementary binding sites in relation to Aβ-pathophysiology compared to current agents.

Aβ plaques [2] = target: T2, Aβ plaques (Homo sapiens, UniProt P05067); test: Multiphoton imaging in live APP/PS1 mice; type: in vivo, mouse
T2 construct: from tissue; host or cells: brain of APPsw+/-/PS1 (and APPsw+/-) transgenic mice: sections ex vivo, and live animals for multiphoton imaging
Protocol: Prior to imaging, dextran-Texas Red was injected for mapping the blood vessels. Following labeling of blood vessels, F-AI-182 (2 mg/kg, dissolved in DMSO/PEG; 20:80) was intravenously injected. A z-stack image series was acquired from cortex surface to a depth of approx. 100 μm using microscope LSM 510META NLO (Carl-Zeiss Inc). […] The labeling of brain parenchymal plaques was visible within 10 min, indicating facile clearance from non-targeted regions and remained labeled for 30 min (FIG. 6). Multi-photon imaging can be done using ^18F-AI-182, other agents, or second generation agents (Bacskai, B., et al. Four-dimensional multiphoton imaging of brain entry, amyloid binding and clearance of an amyloid-3 ligand in transgenic mice. Proc Natl Acad Sci USA 100, 12462-12467 (2003)).

Aβ plaques [3] = target: T2, Aβ plaques; test: Ex vivo staining of mouse brain sections; type: binding; conditions: 24 months
Protocol: FIG. 2 illustrates ex vivo staining studies were performed on brain sections (50 μm) of an APPsw^+/−/PS1 mouse (24 months old) and a control WT mouse (BL/6; 24 months old) using well-established procedures. Briefly, tissue sections were immunostained with mouse monoclonal antibody and visualized by donkey-anti-mouse HJ3.4 Aβ monoclonal antibody-Alexa 568 as a positive control. […] By comparison, no staining in WT mice was seen either with F-AI-182 or the antibody indicating the targeting specificity of F-AI-182. The slides were analyzed on a Zeiss LSM 5 PASCAL confocal system coupled to a Zeiss Axiovert 200 microscope.
The slides were analyzed using a Nikon Ti-E PFS inverted microscope equipped with a Nikon 10x 0.3 NA Plan APO objective, Prior H117 ProScan flat top linear encoded stage, and Prior Lumen 200PRO illumination system with standard DAPI and FITC filter sets. The images were acquired using a Photometrics CoolSNAP HQ2 digital camera and MetaMorph microscopy automaton, and imaging software. Images were processed and analyzed using the Image J software package (NIH).

[4] = test system: Human Pancreatic Cancer Cells (Mia PaCa-2); test: Live cell fluorescence imaging; type: cell-based; conditions: 5 μM, 37° C., 30 min
Protocol: (§1) In these experiments, human carcinoma cells were incubated with AI-182
(§2) (5 μM) at 37° C. in the presence of 5% CO2 for 30 min, and examined using a Nikon Ti-E PFS inverted high resolution microscope equipped with a Nikon (Magnification: 20×) Plan APO objective, Prior H117 ProScan flat top linear encoded stage, and Prior Lumen 200PRO illumination system with standard DAPI and FITC filter sets. Top row: Live Cell Imaging of Human Glioblastoma (U87) Cells Using AI-182. Middle row: Live Cell Imaging of Human Pancreatic Cancer Cells (PANC1) Using AI-182. Bottom row: Live Cell Imaging of Human Pancreatic Cancer Cells (Mia PaCa-2) Using AI-182.

[5] = test system: Human Glioblastoma (U87) Cells; test: Live cell fluorescence imaging; type: cell-based; conditions: 5 μM, 37° C., 30 min
Protocol: as §1, §2

[6] = test system: Human Pancreatic Cancer Cells (PANC1); test: Live cell fluorescence imaging; type: cell-based; conditions: 5 μM, 37° C., 30 min
Protocol: as §1, §2

T2 sequence (P05067 672-713 limits assumed): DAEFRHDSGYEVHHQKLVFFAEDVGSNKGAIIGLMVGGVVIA
T1 sequence (P05067 672-713 limits assumed): as above

Question: What does the source list for CN(C)c1ccc(/C=C/c2nc3ccc(OCCF)cc3s2)cn1 [F-AI-182]?
Answer: logP (Hydrophobicity (log P)): 1.2; staining of Aβ plaques in human AD brain sections (Aβ plaques [1]): detect both diffuse and compact AP plaques; also recorded: stains both fibrillar and diffuse plaques; also recorded: abundant staining of Aβ plaques; Kd (preformed Aβ1-42 fibrils; concentration dependent and saturable binding, read-out: binding constant (Kd) to preformed Aβ1-42 fibrils): 59 ± 7 nM; fluorescence of 570 nm peak upon incubation with preformed Aβ(1-42) aggregates (preformed Aβ1-42 fibrils; excitation 410 nm): remarkable enhancement in the fluorescence; time at which labeling of brain parenchymal plaques was visible (Aβ plaques [2]; live APP/PS1 mice): ≤ 10 min; time plaques remained labeled (Aβ plaques [2]; live APP/PS1 mice): 30 min; labeling of plaques in vivo by multi-photon microscopy (Aβ plaques [2]; live APPsw+/−/PS1 mice, 2 mg/kg i.v., 2 mg/kg): label plaques in brain parenchyma and blood vessels (CAA); staining of plaques in hippocampus and cortical region of brain sections (Aβ plaques [3]; APPsw+/−/PS1 mice, 100 nM, 60 min): staining of both fibrillar and diffuse plaques; also recorded: stains both fibrillar and diffuse plaques; also recorded: abundant staining of fibrillar and diffuse plaques; staining of brain sections of WT mice (Aβ plaques [3]; WT BL/6 mouse): no staining; probe uptake in cells (fluorescence) [4]: accumulation of the probe within cells; probe uptake in cells (fluorescence) [5]: accumulation of the probe within cells; probe uptake in cells (fluorescence) [6]: accumulation of the probe within cells
